According to US7186544B2, “Agents for promoting fattening of animals and method of promoting fattening” (Fuso Chemical Co., Ltd., priority 1999, dated 2007):

Legend:
[1] = test system: new born broiler chicks (Chunky); experiment: Test Example 3: feeding / drinking water test in broiler chicks, 8 weeks; format: in vivo, chickens; conditions: 0.5% in feed and 0.14% in drinking water vs chicks not having taken sodium gluconate
Description: The feeds of Example 10 and Comparative Example 4 and the drinking water prepared in Example 11 were fed to groups of new born broiler chicks (Chunky), each group being composed of 50 chicks (25 male chicks and 25 female chicks), continuously for 8 weeks. At the start of the feeding test, on two weeks, 4 weeks and 6 weeks after the start of the test, and at the end of the test, that is, five times in all, the chicks were weighed individually, and an increase in the body weight was calculated for every group. In each group, checked was the feed intake during the period between the days on which the body weight was measured, and the feed conversion ratio was calculated from the overall body weight increase and the overall feed intake.

piglets = experiment: Test Example 4: feeding test in piglets, 8 weeks, sodium gluconate dose series; format: in vivo, pigs; conditions: for Body Weight Increase ± S.D. / Feed Conversion Ratio ± S.D.: piglets about 20 kg, 8 weeks; for Body Weight Increase (index %) / Feed Conversion Ratio (index %): control with no additive = 100
From the text: To a feed for latter artificial milk suckling-stage piglets (manufactured by Nippon Kagaku Shiryo Kyokai) and to a feed for raising piglets (manufactured by Nippon Kagaku Shiryo Kyokai), added were 0.05, 0.1, 0.25, 0.5 and 1.0%, relative to the weight of the feeds, of sodium gluconate.
The above-mentioned feeds were fed to groups of piglets (body weight: about 20 kg), each group being composed of 4 piglets (2 male piglets and 2 female piglets), continuously for 8 weeks (the feed for latter artificial milk for the former 2 weeks and the feed for raising piglets for the latter 6 weeks). During the period of the feeding test, each of the piglets was weighed every week, and an increase in the body weight was calculated for every group. In each group, checked was the feed intake during the period between the days on which the body weight was measured, and the feed conversion ratio was calculated.
This test was repeated 10 times for the group not having taken sodium gluconate and the group having taken 0.5% sodium gluconate, but 5 times for the other groups having taken sodium gluconate in different concentrations. The obtained body weight increases and the feed conversion ratios were averaged for every group.

[2] = test system: contents of pig large intestines; experiment: Example 12: static culture of pig large intestine contents, acids and ammonia; format: cell-based, pigs
Description: Three pigs were acclimated for 1 week, and the contents of their large intestines were taken out. The contents were diluted 5-fold with an anaerobic phosphate buffer (50 mM, pH 6.5), and then filtrated through 4-layered gauze. 25 mL of the resulting filtrate was put into serum bottles of 120 mL volume, and the gas phase therein was purged with a mixed gas of nitrogen/carbon dioxide (80/20). The bottles were sealed with butyl rubber stoppers and aluminum seals, and left for static culture at 39° C. for 24 hours (n=3).
Prior to putting the intestinal filtrate into the serum bottles, 1 w/v % glucose (positive control) and 1 w/v % sodium gluconate were put in the bottles, except for an additive-free control (negative control).
After the intestinal filtrate was thus cultivated, 1 mL of 6 N hydrochloric acid was added thereto to stop fermentation. The resulting cultures were analyzed as follows:
The cultures were pre-treated according to the Ushida and Sakata's conditions (Anim. Sci. Technol., 69, 571–575, […]), and then were analyzed on the concentration of short-chain fatty acids, succinic acid and lactic acid therein by HPLC and the concentration of ammonia therein by the indophenol method (Weatherburn, Analytic Chem., 39, 971–974, 1967). Subtracting the concentration before cultivation from that after cultivation gives the amount (mM) generated through fermentation.

[3] = test system: contents of pig large intestines; experiment: Example 13: fermentation gas generated in culture of pig large intestine contents; format: cell-based, pigs
Description: The amount of fermentation gas generated in the cultivation of Example 12 was measured by putting a glass syringe equipped with an injection needle into a head space of the serum bottle, sucking the gas until normal pressure is reached and measuring the sucked gas by a syringe scale.
The composition of the gas was analyzed for carbon dioxide, methane, hydrogen and hydrogen sulfide by TCD and FPD gas chromatography (Ushida, et al.; Jpn. J. Zootech. Sci., 53, 412–416, 1982, and Anim. Sci. Technol., 69, 571–575, 1998).

anaerobic microorganisms = experiment: Example 14: number of colonies of anaerobic microorganisms in PYF culture of pig intestinal filtrate; format: cell-based, pigs
Description: (§1) Pigs were acclimated for 1 week, and the contents of their large intestines were taken out. The contents were diluted 5-fold with an anaerobic phosphate buffer (50 mM, pH 6.5), and then filtrated through 4-layered gauze. One mL of the resulting filtrate was inoculated on a PYF medium (100 mL) with 1 w/v % sodium gluconate added thereto, and incubated in an anaerobic condition at 39° C.
(§2) During incubation, 5 mL of a sterilized 10 w/v % aqueous solution of sodium gluconate were put into the medium at intervals of 48 hours.
(§3) The culture without sodium gluconate and the culture with sodium gluconate added thereto were sampled on 0, 8, 24, 48, 96 and 144 hours in a germ-free condition, and the samples were diluted to 10^−5. 0.05 mL of each dilution were inoculated on BL agar media (manufactured by Nissui), and anaerobically incubated at 37° C. for 48 hours. The number of colonies of anaerobic microorganisms having grown in agar plates was counted (Table 7).

Megasphaera elsdenii [4] = experiment: Example 14: count of isolated strain in 144-hour culture; format: cell-based
Description: as §1, §2, §3
(§4) At the same time, according to the properties of the colonies thus grown, strains having grown only on the agar plate inoculated with the 144-hour sample of sodium gluconate-added culture were isolated, and they were counted and identified (Table 8).

Mitsuokella multiacidus [5] = experiment: as above; format: cell-based
Description: as §1, §2, §3, §4

Megasphaera elsdenii [6] = experiment: Example 15: short-chain fatty acid production by isolated strain; format: cell-based
Description: (§5) The strains Megasphaera elsdenii and Mitsuokella multiacidus having grown in Example 14 were anaerobically incubated in PYF media (100 mL) with 1% w/v sodium gluconate added thereto, at 39° C. for 24 hours. The cultures were analyzed on the concentration of the short-chain fatty acids (mM) therein in the same manner as in Example 12.

Mitsuokella multiacidus [7] = experiment: as above; format: cell-based
Description: as §5

[8] = 0.05% added to feed, 5 test cycles
[9] = 0.1% added to feed, 5 test cycles
[10] = 0.25% added to feed, 5 test cycles
[11] = 0.5% added to feed, 10 test cycles
[12] = 1.0% added to feed, 5 test cycles
[13] = after cultivation, 1 w/v % additive, 39° C., 24 hours, n=3
[14] = index based on the data before cultivation of 100
[15] = cultivation of Example 12, 1 w/v % additive, n=3
[16] = 144-hour sample of sodium gluconate-added culture
[17] = PYF medium with 1% w/v sodium gluconate, 39° C., 24 hours
[18] = sodium gluconate added minus control with no additive

O=C([O-])[C@H](O)[C@@H](O)[C@H](O)[C@H](O)CO.[Na+] [Sodium Gluconate, sodium gluconate]
feed efficiency improved by [1]: 6%
Body Weight Increase ± S.D. (piglets; [8]): 39.96 ± 5.83 kg
Feed Conversion Ratio ± S.D. (piglets; [8]): 2.62 ± 0.15
Body Weight Increase (index %) (piglets; 0.05% added to feed): (104) %
Feed Conversion Ratio (index %) (piglets; 0.05% added to feed): (97) %
Body Weight Increase ± S.D. (piglets; [9]): 40.92 ± 4.49 kg
Feed Conversion Ratio ± S.D. (piglets; [9]): 2.58 ± 0.11
Body Weight Increase (index %) (piglets; 0.1% added to feed): (106) %
Feed Conversion Ratio (index %) (piglets; 0.1% added to feed): (96) %
Body Weight Increase ± S.D. (piglets; [10]): 41.26 ± 3.44 kg
Feed Conversion Ratio ± S.D. (piglets; [10]): 2.55 ± 0.17
Body Weight Increase (index %) (piglets; 0.25% added to feed): (107) %
Feed Conversion Ratio (index %) (piglets; 0.25% added to feed): (94) %
Body Weight Increase ± S.D. (piglets; [11]): 40.43 ± 4.40 kg
Feed Conversion Ratio ± S.D. (piglets; [11]): 2.63 ± 0.12
Body Weight Increase (index %) (piglets; 0.5% added to feed): (105) %
Feed Conversion Ratio (index %) (piglets; 0.5% added to feed): (97) %
Body Weight Increase ± S.D. (piglets; [12]): 39.28 ± 2.58 kg
Feed Conversion Ratio ± S.D. (piglets; [12]): 2.74 ± 0.05
Body Weight Increase (index %) (piglets; 1.0% added to feed): (102) %
Feed Conversion Ratio (index %) (piglets; 1.0% added to feed): (101) %
Acetic Acid [2, 13]: 161.90 mM
Ammonia [2, 13]: 5.79 mM
Butyric Acid [2, 13]: 70.36 mM
Lactic Acid [2, 13]: 0 mM
Propionic Acid [2, 13]: 103.25 mM
Succinic Acid [2, 13]: 0 mM
lactic acid, succinic acid and ammonia in the cultures ([2]; in words): greatly reduce
concentration of acetic acid, propionic acid and butyric acid in the cultures ([2]; in words, compared with cultures without sodium gluconate): greatly increased
Acetic Acid (index) [2, 14]: (404)
Ammonia (index) [2, 14]: (74)
Butyric Acid (index) [2, 14]: (1305)
Lactic Acid (index) [2, 14]: (0)
Propionic Acid (index) [2, 14]: (941)
Succinic Acid (index) [2, 14]: (0)
Carbon Dioxide [3, 15]: 4330 µL/g
Hydrogen [3, 15]: 211.99 µL/g
Hydrogen Sulfide [3, 15]: 0.09 µL/g
Methane [3, 15]: 30 µL/g
Total Gas [3, 15]: 6880 µL/g
hydrogen sulfide in the cultures ([3]; in words, compared with cultures with no additives): greatly reduced
number of anaerobic microorganisms (anaerobic microorganisms; 0 hrs after start of incubation, 1 w/v % in PYF medium, 39° C.): <6.3 logarithmic number of the cells in 1 g of culture
number of anaerobic microorganisms (anaerobic microorganisms; 8 hrs after start of incubation): 8.9 logarithmic number of the cells in 1 g of culture
number of anaerobic microorganisms (anaerobic microorganisms; 24 hrs after start of incubation): 10.7 logarithmic number of the cells in 1 g of culture
number of anaerobic microorganisms (anaerobic microorganisms; 48 hrs after start of incubation): 8.7 logarithmic number of the cells in 1 g of culture
number of anaerobic microorganisms (anaerobic microorganisms; 96 hrs after start of incubation): 10.4 logarithmic number of the cells in 1 g of culture
number of anaerobic microorganisms (anaerobic microorganisms; 144 hrs after start of incubation): 7.7 logarithmic number of the cells in 1 g of culture
total number of anaerobic microorganisms (anaerobic microorganisms; in words): increased
number of Megasphaera elsdenii (Megasphaera elsdenii [4]; [16]): 6.4 logarithmic number of the cells in 1 g of culture
Megasphaera elsdenii number (Megasphaera elsdenii [4]; in words): observed to increase
number of Mitsuokella multiacidus (Mitsuokella multiacidus [5]; [16]): 7.2 logarithmic number of the cells in 1 g of culture
Mitsuokella multiacidus number (Mitsuokella multiacidus [5]; in words): observed to increase
Acetic Acid (Megasphaera elsdenii [6]; [17]): 8.7 mM
Butyric Acid (Megasphaera elsdenii [6]; [17]): 4.9 mM
Propionic Acid (Megasphaera elsdenii [6]; [17]): 0.8 mM
short-chain fatty acids produced by Megasphaera elsdenii utilizing sodium gluconate (Megasphaera elsdenii [6]; in words): produced a lot of acetic acid and butyric acid
Acetic Acid, Difference (Megasphaera elsdenii [6]; [18]): 2.9 mM
Butyric Acid, Difference (Megasphaera elsdenii [6]; [18]): 3.5 mM
Propionic Acid, Difference (Megasphaera elsdenii [6]; [18]): -0.8 mM
Acetic Acid (Mitsuokella multiacidus [7]; [17]): 9.9 mM
Butyric Acid (Mitsuokella multiacidus [7]; [17]): 1.0 mM
Propionic Acid (Mitsuokella multiacidus [7]; [17]): 43.1 mM
short-chain fatty acids produced by Mitsuokella multiacidus utilizing sodium gluconate (Mitsuokella multiacidus [7]; in words): produced a lot of acetic acid and propionic acid
Acetic Acid, Difference (Mitsuokella multiacidus [7]; [18]): 7.0 mM
Butyric Acid, Difference (Mitsuokella multiacidus [7]; [18]): 0.7 mM
Propionic Acid, Difference (Mitsuokella multiacidus [7]; [18]): 36.1 mM
